Source: US8436186B2, “Thiazolyl piperidine derivatives” (Merck Patent Gesellschaft mit beschrankter Haftung, priority 2008, dated 2013)

Target: SphK1 (Homo sapiens, UniProt Q9NYA1)
Experiment: SphK1 384-well flashplate kinase assay
Type: biochemical
Conditions: enzyme assay
Description: The kinase assay is carried out as a 384-well flashplate assay.
5 nM modified SphK1, 800 nM omega-biotinyl-D-erythro-sphingosine and 1 μM ATP (with 0.3 μCi of ^33P-ATP/well) are incubated in a total volume of 50 μl (25 mM HEPES, 5 mM MgCl2, 1 mM dithiothreitol, 0.01% of Brij35, 0.1% of BSA (fatty acid-free), pH 7.4) without or with test substance (5-10 concentrations) at 30° C. for 120 min. The reaction is terminated using 25 μl of 200 mM EDTA solution, filtered off with suction at room temperature after 30 min, and the cavities are washed 3 times with 100 μl of 0.9% NaCl solution. The non-specific proportion of the kinase reaction (blank) is determined using 0.5 mM NaCl. Radioactivity is measured in topcount. IC50 values are calculated using RS1.

Chain of SphK1 (Q9NYA1 whole entry): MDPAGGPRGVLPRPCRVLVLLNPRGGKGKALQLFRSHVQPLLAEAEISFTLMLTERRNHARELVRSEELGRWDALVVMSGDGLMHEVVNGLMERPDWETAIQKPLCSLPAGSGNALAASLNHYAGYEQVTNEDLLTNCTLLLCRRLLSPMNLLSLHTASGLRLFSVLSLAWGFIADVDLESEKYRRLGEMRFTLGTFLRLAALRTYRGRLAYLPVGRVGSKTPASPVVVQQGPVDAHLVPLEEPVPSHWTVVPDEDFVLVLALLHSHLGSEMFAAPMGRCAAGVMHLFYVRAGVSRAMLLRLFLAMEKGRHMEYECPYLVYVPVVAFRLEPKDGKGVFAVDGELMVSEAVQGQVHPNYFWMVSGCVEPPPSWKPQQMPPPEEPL

| IC50 [nM] | SMILES |
| --- | --- |
| 10 to 1000 | CC1(C)CCC(C)(C)c2cc(-c3csc(C4CCN(C[C@H](O)CO)CC4)n3)ccc21 [Compound A22] |
| 1000 to 10000 | CN1CCCCC1CCN1CCC(c2nc(-c3ccc4c(c3)C(C)(C)CCC4(C)C)cs2)CC1 (stereo not shown) [Compound A23] |
| 1000 to 10000 | CCN(CC)CCN1CCC(c2nc(-c3ccc4c(c3)C(C)(C)CCC4(C)C)cs2)CC1 [Compound A26] |
| 10 to 1000 | COCCN1CCC(c2nc(-c3ccc4c(c3)C(C)(C)CCC4(C)C)cs2)CC1 [Compound A32] |
| 10 to 1000 | COCC(O)CN1CCC(c2nc(-c3ccc4c(c3)C(C)(C)CCC4(C)C)cs2)CC1 (stereo not shown) [Compound A17] |
| > 10000 | COc1ccccc1N1CCN(CCN2CCC(c3nc(-c4ccc5c(c4)C(C)(C)CCC5(C)C)cs3)CC2)CC1 [Compound A35] |
| 10 to 1000 | CC1(C)CC(C)(C)c2cc(-c3csc(C4CCN(CCCO)CC4)n3)ccc21 [Compound B4] |
| 1000 to 10000 | CN1CCCC1CCN1CCC(c2nc(-c3ccc4c(c3)C(C)(C)CCC4(C)C)cs2)CC1 (stereo not shown) [Compound A5] |
| 10 to 1000 | CC(C)NCC(O)CN1CCC(c2nc(-c3ccc4c(c3)C(C)(C)CCC4(C)C)cs2)CC1 (stereo not shown) [Compound A20] |
| 10 to 1000 | CC1(C)CCC(C)(C)c2cc(-c3csc(C4CCN(CCCCN5CCOCC5)CC4)n3)ccc21 [Compound A30] |
| > 10000 | CC1(C)CCC(C)(C)c2cc(-c3csc(C4CCN(C(=O)CCN5CCNCC5)CC4)n3)ccc21 [Compound A67] |
| 10 to 1000 | CC1(C)CCC(C)(C)c2cc(-c3csc(C4CCN(Cc5c[nH]cn5)CC4)n3)ccc21 [Compound A75] |
| > 10000 | CC(CN1CCOCC1)CN1CCC(c2nc(-c3ccc4c(c3)C(C)(C)CCC4(C)C)cs2)CC1 (stereo not shown) [Compound A1, 4-(2-methyl-3-{4-[4-(5,5,8,8-tetramethyl-5,6,7,8-tetrahydronaphthalen-2-yl)thiazol-2-yl]piperidin-1-yl}propyl)morpholine] |
| 10 to 1000 | CC1(C)CCC(C)(C)c2cc(-c3csc(C4CCN(CCO)CC4)n3)ccc21 [Compound A9] |
| 1000 to 10000 | CC1(C)CCC(C)(C)c2cc(-c3csc(C4CCN(CCN5CCCCC5)CC4)n3)ccc21 [Compound A19] |
| 1000 to 10000 | CC1(C)CCC(C)(C)c2cc(-c3csc(C4CCN(C[C@@H](O)CO)CC4)n3)ccc21 [Compound A12] |
| 1000 to 10000 | CCN(CC)C(=O)CN1CCC(c2nc(-c3ccc4c(c3)C(C)(C)CCC4(C)C)cs2)CC1 [Compound A18] |
| 1000 to 10000 | Cn1cnc(CN2CCC(c3nc(-c4ccc5c(c4)C(C)(C)CCC5(C)C)cs3)CC2)c1 [Compound A71] |

| IC50 [nM] | SMILES |
| --- | --- |
| 1000 to 10000 | CC1(C)CCC(C)(C)c2cc(-c3csc(C4CCN(CCN5CCOCC5)CC4)n3)ccc21 [Compound A25] |
| 1000 to 10000 | CCN(CC)CCCN1CCC(c2nc(-c3ccc4c(c3)C(C)(C)CCC4(C)C)cs2)CC1 [Compound A36] |
| 10 to 1000 | CC1(C)CCC(C)(C)c2cc(-c3csc(C4CCN(CCCCO)CC4)n3)ccc21 [Compound B2] |
| 1000 to 10000 | Cn1cccc1CN1CCC(c2nc(-c3ccc4c(c3)C(C)(C)CCC4(C)C)cs2)CC1 [Compound B8] |
| 10 to 1000 | CC(CCO)N1CCC(c2nc(-c3ccc4c(c3)C(C)(C)CCC4(C)C)cs2)CC1 (stereo not shown) [Compound A40] |
| 10 to 1000 | CC1(C)CCC(C)(C)c2cc(-c3csc(C4CCN(Cc5cc[nH]n5)CC4)n3)ccc21 [Compound B7] |
| 1000 to 10000 | CC1(C)CCC(C)(C)c2cc(-c3csc(C4CCN(CC(=O)N5CCOCC5)CC4)n3)ccc21 [Compound A31] |
| 1000 to 10000 | CC1(C)CCC(C)(C)c2cc(-c3csc(C4CCN(CCCO)CC4)n3)ccc21 [Compound A16] |
| > 10000 | CC1(C)CCC(C)(C)c2cc(-c3csc(C4CCN(S(C)(=O)=O)CC4)n3)ccc21 [Compound A83] |
| 1000 to 10000 | CC1(C)CCC(C)(C)c2cc(-c3csc(C4CCN(CCN5CCCC5)CC4)n3)ccc21 [Compound A21] |
| 1000 to 10000 | CC1(C)CCC(C)(C)c2cc(-c3csc(C4CCN(CCCN5CCOCC5)CC4)n3)ccc21 [Compound B1] |
| > 10000 | CN(C)CC(C)(C)CN1CCC(c2nc(-c3ccc4c(c3)C(C)(C)CCC4(C)C)cs2)CC1 [Compound A76] |
| 10 to 1000 | Cn1ccnc1CN1CCC(c2nc(-c3ccc4c(c3)C(C)(C)CCC4(C)C)cs2)CC1 [Compound A73] |
| 1000 to 10000 | CC1(C)CCC(C)(C)c2cc(-c3csc(C4CCN(CC(N)=O)CC4)n3)ccc21 [Compound A8] |
| 1000 to 10000 | CC(=O)N1CCC(c2nc(-c3ccc4c(c3)C(C)(C)CCC4(C)C)cs2)CC1 [Compound A80] |
| 10 to 1000 | CC1(C)CCC(C)(C)c2cc(-c3csc(C4CCN(CCCCCO)CC4)n3)ccc21 [Compound B10] |
| 10 to 1000 | CC(CO)N1CCC(c2nc(-c3ccc4c(c3)C(C)(C)CCC4(C)C)cs2)CC1 (stereo not shown) [Compound A38] |
| 10 to 1000 | CCN1CCC(c2nc(-c3ccc4c(c3)C(C)(C)CCC4(C)C)cs2)CC1 [Compound A34] |

More lines, now with the values behind:

| SMILES | IC50 [nM] |
| --- | --- |
| CC1(C)CCC(C)(C)c2cc(-c3csc(C4CCN(C(=O)[C@H](N)CCCCO)CC4)n3)ccc21 [Compound A66] | 10 to 1000 |
| CC1(C)CCC(C)(C)c2cc(-c3csc(C4CCN(C(=O)c5ccncc5)CC4)n3)ccc21 [Compound A52] | 1000 to 10000 |
| CN(C)CCN1CCC(c2nc(-c3ccc4c(c3)CCCC4)cs2)CC1 [Compound A6] | > 10000 |
| CC1(C)CCCc2cc(-c3csc(C4CCN(CCCCO)CC4)n3)ccc21 [Compound B3] | 10 to 1000 |
| CN(C)CCCNC(=O)N1CCC(c2nc(-c3ccc4c(c3)C(C)(C)CCC4(C)C)cs2)CC1 [Compound A42] | 1000 to 10000 |
| CC1(C)CCC(C)(C)c2cc(-c3csc(C4CCN(C(=O)C5CNCCO5)CC4)n3)ccc21 (stereo not shown) [Compound A65] | 10 to 1000 |
| CN(C)n1cccc1CN1CCC(c2nc(-c3ccc4c(c3)C(C)(C)CCC4(C)C)cs2)CC1 [Compound B14] | 1000 to 10000 |
| CC(CO)(CO)C(=O)N1CCC(c2nc(-c3ccc4c(c3)C(C)(C)CCC4(C)C)cs2)CC1 [Compound A57] | 1000 to 10000 |
| COCCCNC(=O)N1CCC(c2nc(-c3ccc4c(c3)C(C)(C)CCC4(C)C)cs2)CC1 [Compound A79] | 1000 to 10000 |
| CC1(C)CCC(C)(C)c2cc(-c3csc(C4CCN(CCn5c(=O)[nH]c6ccccc6c5=O)CC4)n3)ccc21 [Compound A24] | 1000 to 10000 |
| CC1(C)CC(C)(C)c2cc(-c3csc(C4CCNCC4)n3)ccc21 [Compound C7] | 10 to 1000 |
| CN1CCCC1CCN1CCC(c2nc(-c3ccc4c(c3)CCCC4)cs2)CC1 (stereo not shown) [Compound A7] | > 10000 |
| CC1(C)CCC(C)(C)c2cc(-c3csc(C4CCN(C(=O)[C@@H](N)CC(N)=O)CC4)n3)ccc21 [Compound A69] | 1000 to 10000 |
| CC1(C)CCC(C)(C)c2cc(-c3csc(C4CCN(C(=O)[C@H](N)CO)CC4)n3)ccc21 [Compound A70] | 1000 to 10000 |
| CCc1cc2c(cc1-c1csc(C3CCNCC3)n1)C(C)(C)CCC2(C)C [Compound C11] | > 10000 |
| CC1(C)CCC(C)(C)c2cc(-c3csc(C4CCN(C(=O)NCCc5ccccn5)CC4)n3)ccc21 [Compound A43] | 1000 to 10000 |
| CC1(C)CCC(C)(C)c2cc(-c3csc(C4CCN(C(=O)[C@@H](N)CO)CC4)n3)ccc21 [Compound A64] | 1000 to 10000 |

| SMILES | IC50 [nM] |
| --- | --- |
| Cc1oncc1S(=O)(=O)N1CCC(c2nc(-c3ccc4c(c3)C(C)(C)CCC4(C)C)cs2)CC1 [Compound A82] | 1000 to 10000 |
| COCC(C)NC(=O)N1CCC(c2nc(-c3ccc4c(c3)C(C)(C)CCC4(C)C)cs2)CC1 (stereo not shown) [Compound A78] | 1000 to 10000 |
| OC[C@H](O)CN1CCC(c2nc(-c3ccc4c(c3)CCCC4)cs2)CC1 [Compound A15] | 1000 to 10000 |
| CC1(C)CCC(C)(C)c2cc(-c3csc(C4CCN(C(=O)OCC5CNCCO5)CC4)n3)ccc21 (stereo not shown) [Compound B16] | 1000 to 10000 |
| CC1(C)CCCc2ccc(-c3csc(C4CCNCC4)n3)cc21 [Compound C3] | 10 to 1000 |
| CC1(C)CCC(C)(C)c2cc(-c3csc(C4CCN(C(=O)NCC(N)=O)CC4)n3)ccc21 [Compound A44] | > 10000 |
| CC1(C)CC(C)(C)c2cc(-c3csc(C4CCN(CCCCO)CC4)n3)ccc21 [Compound B6] | 10 to 1000 |
| COCCCOC(=O)N1CCC(c2nc(-c3ccc4c(c3)C(C)(C)CCC4(C)C)cs2)CC1 [Compound A46, 3-methoxypropyl 4-[4-(5,5,8,8-tetramethyl-5,6,7,8-tetrahydronaphthalen-2-yl)thiazol-2-yl]piperidine-1-carboxylate] | 1000 to 10000 |
| OCCCN1CCC(c2nc(-c3ccc4c(c3)CCCC4)cs2)CC1 [Compound A13] | 1000 to 10000 |
| CC1(C)CC(C)(C)c2cc(-c3csc(C4CCN(CCCCCO)CC4)n3)ccc21 [Compound B5] | 10 to 1000 |
| Cc1cc(-c2csc(C3CCNCC3)n2)c(O)c2c1CCC2 [Compound C10] | 1000 to 10000 |
| CC1(O)CCCc2cc(-c3csc(C4CCNCC4)n3)ccc21 (stereo not shown) [Compound C2] | 10 to 1000 |
| Cc1[nH]cnc1CN1CCC(c2nc(-c3ccc4c(c3)C(C)(C)CCC4(C)C)cs2)CC1 [Compound A72] | 10 to 1000 |
| OCCN1CCC(c2nc(-c3ccc4c(c3)CCCC4)cs2)CC1 [Compound A11] | 1000 to 10000 |
| CN(C)CC(=O)N1CCC(c2nc(-c3ccc4c(c3)C(C)(C)CCC4(C)C)cs2)CC1 [Compound A55] | > 10000 |
| CC1(C)CCC(C)(C)c2cc(-c3csc(C4CCN(Cc5ccccn5)CC4)n3)ccc21 [Compound A77] | 1000 to 10000 |
| CC1(C)CCC(C)(C)c2cc(-c3csc(C4CCN(C(=O)Cc5ccncc5)CC4)n3)ccc21 [Compound A51, 2-pyridin-4-yl-1-{4-[4-(5,5,8,8-tetramethyl-5,6,7,8-tetrahydronaphthalen-2-yl)thiazol-2-yl]piperidin-1-yl}ethanone] | 1000 to 10000 |
